Assay results reported in PubChem BioAssay AID1259407 (Chemical Carcinogenesis Research Information System (CCRIS), 2018).
Activity calls are given as the source filed them. How the calls were made is not given here.

Test system: CCRIS mutagenicity, Ames/micronucleus/aberration tests
Assay: CCRIS mutagenicity studies
[1] = Test System: AMES SALMONELLA TYPHIMURIUM, Strain/Indicator: TA1535, Metabolic Activation: NONE, Method: PREINCUBATION
[2] = Test System: AMES SALMONELLA TYPHIMURIUM, Strain/Indicator: TA1537, Metabolic Activation: NONE, Method: PREINCUBATION
[3] = Test System: AMES SALMONELLA TYPHIMURIUM, Strain/Indicator: TA100, Metabolic Activation: NONE, Method: STANDARD PLATE
[4] = Test System: AMES SALMONELLA TYPHIMURIUM, Strain/Indicator: TA97, Metabolic Activation: HAMSTER, LIVER, S-9, AROCLOR 1254 (10%), Method: PREINCUBATION
[5] = Test System: AMES SALMONELLA TYPHIMURIUM, Strain/Indicator: TA97, Metabolic Activation: NONE, Method: PREINCUBATION
[6] = Test System: AMES SALMONELLA TYPHIMURIUM, Strain/Indicator: TA97, Metabolic Activation: RAT, LIVER, S-9, AROCLOR 1254 (10%), Method: PREINCUBATION
[7] = Test System: AMES SALMONELLA TYPHIMURIUM, Strain/Indicator: TA98, Metabolic Activation: HAMSTER, LIVER, S-9, AROCLOR 1254 (10%), Method: PREINCUBATION
[8] = Test System: AMES SALMONELLA TYPHIMURIUM, Strain/Indicator: TA98, Metabolic Activation: NONE, Method: PREINCUBATION
[9] = Test System: AMES SALMONELLA TYPHIMURIUM, Strain/Indicator: TA100, Metabolic Activation: HAMSTER, LIVER, S-9, AROCLOR 1254 (10%), Method: PREINCUBATION
[10] = Test System: AMES SALMONELLA TYPHIMURIUM, Strain/Indicator: TA100, Metabolic Activation: NONE, Method: PREINCUBATION
[11] = Test System: AMES SALMONELLA TYPHIMURIUM, Strain/Indicator: TA1535, Metabolic Activation: HAMSTER, LIVER, S-9, AROCLOR 1254 (10%), Method: PREINCUBATION
[12] = Test System: AMES SALMONELLA TYPHIMURIUM, Strain/Indicator: TA100, Metabolic Activation: RAT, LIVER, S-9, AROCLOR 1254, Method: STANDARD PLATE

SMILES: CNNC
- mutagenic call (Test System: AMES SALMONELLA TYPHIMURIUM, Strain/Indicator: TA102, Metabolic Activation: NONE, Method: PREINCUBATION): inactive; negative
- mutagenic call (Test System: AMES SALMONELLA TYPHIMURIUM, Strain/Indicator: TA102, Metabolic Activation: NONE, Method: STANDARD PLATE): inactive; negative
- mutagenic call [1]: inactive; negative
- mutagenic call (Test System: AMES SALMONELLA TYPHIMURIUM, Strain/Indicator: TA1535, Metabolic Activation: NONE, Method: STANDARD PLATE): inactive; negative
- mutagenic call (Test System: AMES SALMONELLA TYPHIMURIUM, Strain/Indicator: TA1535, Metabolic Activation: RAT, LIVER, S-9, AROCLOR 1254, Method: PREINCUBATION): inactive; negative
- mutagenic call [2]: inactive; negative
- mutagenic call (Test System: AMES SALMONELLA TYPHIMURIUM, Strain/Indicator: TA1537, Metabolic Activation: RAT, LIVER, S-9, AROCLOR 1254, Method: PREINCUBATION): inactive; negative
- mutagenic call (Test System: AMES SALMONELLA TYPHIMURIUM, Strain/Indicator: TA2638, Metabolic Activation: NONE, Method: STANDARD PLATE): active; positive
- mutagenic call (Test System: AMES SALMONELLA TYPHIMURIUM, Strain/Indicator: YG7108, Metabolic Activation: NONE, Method: STANDARD PLATE): active; positive
- mutagenic call (Test System: E. COLI, Strain/Indicator: WP2 (PKM101), Metabolic Activation: NONE, Method: STANDARD PLATE): active; positive
- mutagenic call (Test System: E. COLI, Strain/Indicator: WP2 UVRA (PKM101), Metabolic Activation: NONE, Method: STANDARD PLATE): active; positive

SMILES: CCc1ccc(NC(=O)c2csc([N+](=O)[O-])c2)cc1
- mutagenic call (Test System: AMES SALMONELLA TYPHIMURIUM, Strain/Indicator: TA98, Metabolic Activation: NONE, Method: STANDARD PLATE): active; positive
- mutagenic call [3]: active; positive

SMILES: Nc1nc2ccccc2[nH]1
- mutagenic call [4]: inactive; negative
- mutagenic call (Test System: AMES SALMONELLA TYPHIMURIUM, Strain/Indicator: TA97, Metabolic Activation: HAMSTER, LIVER, S-9, AROCLOR 1254 (30%), Method: PREINCUBATION): inactive; negative
- mutagenic call [5]: inactive; negative
- mutagenic call [6]: inactive; negative
- mutagenic call (Test System: AMES SALMONELLA TYPHIMURIUM, Strain/Indicator: TA97, Metabolic Activation: RAT, LIVER, S-9, AROCLOR 1254 (30%), Method: PREINCUBATION): inactive; negative
- mutagenic call [7]: inactive; negative
- mutagenic call (Test System: AMES SALMONELLA TYPHIMURIUM, Strain/Indicator: TA98, Metabolic Activation: HAMSTER, LIVER, S-9, AROCLOR 1254 (30%), Method: PREINCUBATION): inactive; negative
- mutagenic call [8]: inactive; negative
- mutagenic call (Test System: AMES SALMONELLA TYPHIMURIUM, Strain/Indicator: TA98, Metabolic Activation: RAT, LIVER, S-9, AROCLOR 1254 (10 OR 30%), Method: PREINCUBATION): inactive; negative
- mutagenic call (Test System: AMES SALMONELLA TYPHIMURIUM, Strain/Indicator: TA98, Metabolic Activation: RAT, LIVER, S-9, AROCLOR 1254, Method: PREINCUBATION): active; positive
- mutagenic call [9]: inactive; negative
- mutagenic call (Test System: AMES SALMONELLA TYPHIMURIUM, Strain/Indicator: TA100, Metabolic Activation: HAMSTER, LIVER, S-9, AROCLOR 1254 (30%), Method: PREINCUBATION): inactive; negative
- mutagenic call [10]: inactive; negative
- mutagenic call (Test System: AMES SALMONELLA TYPHIMURIUM, Strain/Indicator: TA100, Metabolic Activation: RAT, LIVER, S-9, AROCLOR 1254 (5%), Method: PREINCUBATION): inactive; negative
- mutagenic call (Test System: AMES SALMONELLA TYPHIMURIUM, Strain/Indicator: TA100, Metabolic Activation: RAT, LIVER, S-9, AROCLOR 1254 (10 OR 30%), Method: PREINCUBATION): inactive; negative
- mutagenic call (Test System: AMES SALMONELLA TYPHIMURIUM, Strain/Indicator: TA100, Metabolic Activation: RAT, LIVER, S-9, AROCLOR 1254, Method: PREINCUBATION): inactive; negative
- mutagenic call [11]: inactive; negative
- mutagenic call (Test System: AMES SALMONELLA TYPHIMURIUM, Strain/Indicator: TA1535, Metabolic Activation: HAMSTER, LIVER, S-9, AROCLOR 1254 (30%), Method: PREINCUBATION): inactive; negative
- mutagenic call [1]: inactive; negative
- mutagenic call (Test System: AMES SALMONELLA TYPHIMURIUM, Strain/Indicator: TA1535, Metabolic Activation: RAT, LIVER, S-9, AROCLOR 1254 (10 OR 30%), Method: PREINCUBATION): inactive; negative
- mutagenic call (Test System: AMES SALMONELLA TYPHIMURIUM, Strain/Indicator: TA1537, Metabolic Activation: HAMSTER, LIVER, S-9, AROCLOR 1254 (10%), Method: PREINCUBATION): inactive; negative
- mutagenic call (Test System: AMES SALMONELLA TYPHIMURIUM, Strain/Indicator: TA1537, Metabolic Activation: HAMSTER, LIVER, S-9, AROCLOR 1254 (30%), Method: PREINCUBATION): inactive; negative
- mutagenic call [2]: inactive; negative
- mutagenic call (Test System: AMES SALMONELLA TYPHIMURIUM, Strain/Indicator: TA1537, Metabolic Activation: RAT, LIVER, S-9, AROCLOR 1254 (10 OR 30%), Method: PREINCUBATION): inactive; negative

SMILES: Cc1c2cc(CO)ccc2nc2c1ccc1ccccc12
- mutagenic call [12]: active; positive

SMILES: O=Cc1c2ccccc2cc2ccccc12
- mutagenic call (Test System: AMES SALMONELLA TYPHIMURIUM, Strain/Indicator: TA98, Metabolic Activation: RAT, LIVER, S-9, AROCLOR 1254, Method: STANDARD PLATE): inactive; negative
- mutagenic call [3]: inactive; negative
- mutagenic call [12]: inactive; negative

SMILES: CCNc1cccc(O)c1
- mutagenic call [4]: inactive; negative
- mutagenic call [5]: inactive; negative
- mutagenic call [6]: inactive; negative
- mutagenic call [7]: active; positive
- mutagenic call [8]: inactive; negative
- mutagenic call (Test System: AMES SALMONELLA TYPHIMURIUM, Strain/Indicator: TA98, Metabolic Activation: RAT, LIVER, S-9, AROCLOR 1254 (10%), Method: PREINCUBATION): active; positive
- mutagenic call [9]: inactive; negative
- mutagenic call [10]: inactive; negative
- mutagenic call (Test System: AMES SALMONELLA TYPHIMURIUM, Strain/Indicator: TA100, Metabolic Activation: RAT, LIVER, S-9, AROCLOR 1254 (10%), Method: PREINCUBATION): inactive; negative
- mutagenic call [11]: inactive; negative
- mutagenic call [1]: inactive; negative
- mutagenic call (Test System: AMES SALMONELLA TYPHIMURIUM, Strain/Indicator: TA1535, Metabolic Activation: RAT, LIVER, S-9, AROCLOR 1254 (10%), Method: PREINCUBATION): inactive; negative

SMILES: COc1cc(O)c2c(=O)c3c(OC)cc4c(c3oc2c1OC)C1CCOC1O4 (stereo not given)
- mutagenic call (Test System: AMES SALMONELLA TYPHIMURIUM, Strain/Indicator: TA98, Metabolic Activation: RAT, LIVER, S-9, PHENOBARBITAL, Method: STANDARD PLATE): inactive; negative
- mutagenic call (Test System: AMES SALMONELLA TYPHIMURIUM, Strain/Indicator: TA100, Metabolic Activation: RAT, LIVER, S-9, PHENOBARBITAL, Method: STANDARD PLATE): inactive; negative
